Measured values reported in PubChem BioAssay (NCI).
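Values below derive from 48-hour exposures of cells grown in 96-well plates, with endpoints linearly interpolated between the two concentrations bracketing the appropriate inhibition level. Abbreviation: GI50, concentration required for 50% inhibition of growth. The concentration for full growth arrest is given as TGI.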

What was measured:
Experiment in all cases: DTP human tumour cell line panel, 48 h
SNB-75 CNS = system: SNB-75 CNS
RPMI-8226 leukemia = system: RPMI-8226 leukemia
SF-295 CNS = system: SF-295 CNS
IGROV1 ovarian = system: IGROV1 ovarian
KM12 colon = system: KM12 colon
CCRF-CEM leukemia = system: CCRF-CEM leukemia
A498 renal = system: A498 renal
NCI-H522 lung = system: NCI-H522 lung
MALME-3M melanoma = system: MALME-3M melanoma
EKVX NSCLC = system: EKVX NSCLC

Row | Compound | GI50 (SNB-75 CNS) [µM] | TGI (SNB-75 CNS) [µM] | GI50 (RPMI-8226 leukemia) [µM] | TGI (RPMI-8226 leukemia) [µM] | GI50 (SF-295 CNS) [µM] | TGI (SF-295 CNS) [µM] | GI50 (IGROV1 ovarian) [µM] | TGI (IGROV1 ovarian) [µM] | GI50 (KM12 colon) [µM] | TGI (KM12 colon) [µM] | GI50 (CCRF-CEM leukemia) [µM] | TGI (CCRF-CEM leukemia) [µM] | GI50 (A498 renal) [µM] | TGI (A498 renal) [µM] | GI50 (NCI-H522 lung) [µM] | TGI (NCI-H522 lung) [µM] | GI50 (MALME-3M melanoma) [µM] | TGI (MALME-3M melanoma) [µM] | TGI (EKVX NSCLC) [µM] | GI50 (EKVX NSCLC) [µM]
1 | Clc1ccc(Nc2ccnc(NCCNc3ccnc4cc(Cl)ccc34)n2)cc1 | 1.22 | 2.47 | 1.38 | 3.73 | 1.16 | 2.42 | 1.43 | 3.12 | 1.62 | 3.06 | 1.01 | 2.62 | 1.13 | 2.39 | 1.7 | 3.27 | 1.74 | 3.48 |  | 
2 | OCc1ccc(N(Cc2ccc(F)cc2)C2CCC2)cc1Cl | 12.2 | 24.8 | 3.03 | 25.4 | 0.437 | 12.9 | 0.0698 | 0.339 | 14.5 | 28.7 | 14.9 | 34.6 | 0.0332 | 0.156 | 13 | 28.6 | 16.2 | 31.3 |  | 
3 | O=C1NC(=O)C2=C1CCC2O (configuration not stated) |  | > 100 |  | > 100 |  | > 100 |  | > 100 |  | > 100 |  | > 100 |  | > 100 |  |  |  | > 100 | > 100 | 
4 | O=C(Nc1ccccc1)O/N=C1/CCCC/C1=C\c1ccccc1 |  | 28.6 |  | 52.5 |  | 29.9 |  | 17.7 |  |  |  | 33.1 |  | 53.6 |  | 30.4 |  |  |  | 
5 | C=CC[P@@]1(=O)O[C@H](c2ccccc2)C(C)N1C(C)C (some centres not stated) |  | > 100 |  | > 100 |  | > 100 |  | > 100 |  | > 100 |  | > 100 |  | > 100 |  |  |  | > 100 | > 100 | 
6 | CCOC(=O)c1sc2ncn(Cc3cccc(Cl)c3)c(=O)c2c1C | 16.4 | 29.9 | 5.58 | 18.4 | 12 | 24.4 | 8.89 | 21.2 | 13.7 | 37.9 |  |  | 15.9 | 30.7 | 10.9 | 23.3 |  |  | 31 | 17.3
7 | CC1(c2ccccc2)CC12C(=O)NC(=O)NC2=O (configuration not stated) |  |  |  | > 100 |  | > 100 |  | > 100 |  | > 100 |  | > 100 |  |  |  | > 100 |  | > 100 | > 100 | 
8 | COC(=O)c1ccc(-c2nc3cc(F)c(F)cc3nc2C#N)cc1 |  |  |  |  | 7.26 | 15.5 | 9.62 | 20.4 | 31.4 | 50 | 2.27 | 18.7 | 14.4 | 23.9 | 6.36 | 35.4 | 7.64 | 16.5 | 19.5 | 9.89
9 | CCOC(=O)c1[nH]c2cccc3c2c1CC(Br)C3=O (configuration not stated) |  |  |  | 26.7 |  | 32.6 |  | 20.4 |  | 30.5 |  | > 100 |  | 32.3 |  |  |  | 28.2 | 32.2 | 
10 | CC1=C(C(=O)Nc2ccc(F)c(Cl)c2)C(c2cccc(O)c2)NC(=S)N1 (configuration not stated) | 14.4 | 41.3 | 30.1 | > 50 | 18 | > 50 | 22.9 | > 50 | 10.8 | 35.8 | > 50 | > 50 | 9.45 | 33.5 | 12.4 | > 50 |  |  | > 50 | 17.8
11 | COCC1N=C(c2ccc(OC)c(OCc3ccccc3)c2OC)O[C@H]1c1ccccc1 (some centres not stated) |  | > 100 |  | 36.9 |  | 93.8 |  | > 100 |  | 96.2 |  | 60.8 |  | 79.7 |  | 69.3 |  |  | > 100 | 
12 | CN(C)CCCNC(=O)c1cc(NC(=O)c2cc(NC(=O)CCCN3c4ccccc4C=Cc4ccccc43)cn2C)cn1C | 13.6 | 62.9 | 2.29 | 6.21 | 2.07 | 5.38 | 3.36 | 8.8 | 2.42 | 10.8 | 2.82 | 12.7 | 22.4 | 53.3 | 4.11 | 19.8 |  |  | 71.3 | 17
13 | C[C@@H](Oc1cc(-c2cnn(C3CCNCC3)c2)cnc1N)c1c(Cl)ccc(F)c1Cl |  |  | 1.91 | 8.64 | 0.276 | > 10 | 2.17 | > 10 | 0.053 | > 10 | 0.621 | 5.13 | 1.51 | 5.34 | 1.3 | 3.2 | 1.22 | 2.61 | > 10 | 8.07
14 | CS(=O)(=O)c1ccc(Oc2nccc(-c3c(-c4ccc(F)cc4)ncn3C3CCNCC3)n2)cc1 | > 25 | > 25 | > 25 | > 25 | > 25 | > 25 | > 25 | > 25 | > 25 | > 25 |  |  | > 25 | > 25 | > 25 | > 25 | > 25 | > 25 | > 25 | > 25
15 | CCN(Cc1ccc(F)cc1F)c1ccc(CO)c(Cl)c1 | 12.8 | 45.3 | 2.96 | 32 | 0.513 | 14.7 | 0.105 | 0.518 | 16.6 | 32.9 | 23.9 | > 88.5 | 0.0316 | 0.136 | 14.8 | 37.6 | 18.2 | 42.8 |  | 
16 | CC(=O)CC(=O)CCCC(=O)Nc1ccc(Cl)cc1Cl |  | > 100 |  | > 100 |  | > 100 |  | > 100 |  | > 100 |  |  |  |  |  | > 100 |  | > 100 |  | 
17 | COC(=O)C/C(C)=C/[C@@H](O)[C@H]1O[C@@H]2CC/C(Cl)=C/C/C=C(/C)[C@H](OC(C)=O)CC(=O)O[C@@H]1C2 | 1.16 | 6.14 | 1.44 | 7.24 |  |  | 1.68 | 15.7 | 2.64 | 9.63 |  |  |  |  | 1.29 | > 25 |  |  | 14.3 | 4.93
